Drawing on paper PMC8315078, “Molecular imaging of fibroblast activation protein after myocardial infarction using the novel radiotracer [^68Ga]MHLL1” (Theranostics, 2021), this text covers IC50 for one compound.

Assay [1] deals with fibroblast activation protein (murine FAP, mFAP) (Mus musculus, UniProt P97321).
Assay [2] has as its target T1, fibroblast activation protein (human FAP, hFAP) (Homo sapiens, UniProt Q12884).
T1 sequence (Q12884 1-760): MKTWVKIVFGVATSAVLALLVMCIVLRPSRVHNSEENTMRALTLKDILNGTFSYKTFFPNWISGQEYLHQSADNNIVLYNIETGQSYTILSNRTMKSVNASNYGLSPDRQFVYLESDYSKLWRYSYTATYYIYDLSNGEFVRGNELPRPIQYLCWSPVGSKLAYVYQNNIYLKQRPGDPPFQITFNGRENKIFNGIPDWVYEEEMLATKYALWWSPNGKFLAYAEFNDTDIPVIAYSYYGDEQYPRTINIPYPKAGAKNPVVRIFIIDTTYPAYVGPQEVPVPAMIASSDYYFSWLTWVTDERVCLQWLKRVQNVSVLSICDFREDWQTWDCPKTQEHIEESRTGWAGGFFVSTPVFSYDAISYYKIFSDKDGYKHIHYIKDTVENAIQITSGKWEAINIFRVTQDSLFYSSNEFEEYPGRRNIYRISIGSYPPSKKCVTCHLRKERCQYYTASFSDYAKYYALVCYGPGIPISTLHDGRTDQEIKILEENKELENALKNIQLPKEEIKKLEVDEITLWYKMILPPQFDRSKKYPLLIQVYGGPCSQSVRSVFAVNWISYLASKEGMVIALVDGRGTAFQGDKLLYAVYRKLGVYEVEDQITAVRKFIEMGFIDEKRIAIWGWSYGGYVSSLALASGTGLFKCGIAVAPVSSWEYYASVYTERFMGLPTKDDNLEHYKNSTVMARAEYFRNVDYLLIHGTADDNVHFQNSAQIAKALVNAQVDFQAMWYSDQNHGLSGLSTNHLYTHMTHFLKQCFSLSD
Put plainly: displacement of […]MHLL1 by cold compound in hFAP-transfected HT1080 cells (internalized activity); wild-type cells negative. The format is cell-based.

The term IC50 denotes the concentration needed to halve the response being measured.

Sequence of fibroblast activation protein (murine FAP, mFAP) (P97321 whole entry): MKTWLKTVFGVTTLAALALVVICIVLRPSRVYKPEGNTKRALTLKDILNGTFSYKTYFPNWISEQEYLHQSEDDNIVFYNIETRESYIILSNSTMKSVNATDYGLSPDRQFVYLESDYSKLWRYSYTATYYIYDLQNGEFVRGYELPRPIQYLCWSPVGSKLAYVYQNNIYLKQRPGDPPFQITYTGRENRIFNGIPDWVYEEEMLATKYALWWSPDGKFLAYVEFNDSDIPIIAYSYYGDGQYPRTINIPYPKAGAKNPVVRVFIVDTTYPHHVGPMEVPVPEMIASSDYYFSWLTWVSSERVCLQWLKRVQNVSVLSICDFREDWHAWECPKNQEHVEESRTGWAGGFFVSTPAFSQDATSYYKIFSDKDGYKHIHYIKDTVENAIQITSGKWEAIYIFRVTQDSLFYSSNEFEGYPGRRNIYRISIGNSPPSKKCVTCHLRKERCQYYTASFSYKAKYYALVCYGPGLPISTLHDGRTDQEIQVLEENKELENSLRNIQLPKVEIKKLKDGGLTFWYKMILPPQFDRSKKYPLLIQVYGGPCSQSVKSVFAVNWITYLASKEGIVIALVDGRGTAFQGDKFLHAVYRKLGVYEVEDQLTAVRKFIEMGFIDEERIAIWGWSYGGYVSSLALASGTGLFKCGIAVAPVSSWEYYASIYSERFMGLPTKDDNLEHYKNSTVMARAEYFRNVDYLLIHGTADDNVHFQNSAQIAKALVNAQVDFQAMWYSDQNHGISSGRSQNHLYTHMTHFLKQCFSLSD

Take `N#C[C@@H]1CCCN1C(=O)CNC(=S)Nc1ccc(CNC(=O)CCC2C(=O)[O][Ga]3[O]C(=O)CN4CCN(CCN2CC4)CC(=O)[O]3)cc1` (stereo partly drawn) [[^natGa]MHLL1, [^68Ga]Ga-2,2'-(7-(1-carboxy-4-((4-(3-(2-((S)-2-cyano-pyrrolidin-1-yl)-2-oxoethyl)thioureido)benzyl)amino)-4-oxobutyl)-1,4,7-triazonane-1,4-diyl)diacetic acid]: the IC50 turned out to be 142 nM in assay [1] and 212 nM in assay [2].
